According to the NIST ThermoML archive (doi:10.1016/j.jct.2006.08.002):
Several values for one entry are separate records, joined by “and”; a condition that tells them apart may be missing. Identical values can stand only once.

Assay: xn = mol fraction of the nth substance listed
Details: Fluid (supercritical or subcritical phases), Constant-volume piezometry

CCO [ethanol] + O
Details | mass density
524.15 K, 7270 kPa, x1 = 0.8 | 383.33 kg/m3
525.15 K, 7460 kPa, x1 = 0.8 | 383.31 kg/m3
526.15 K, 7550 kPa, x1 = 0.8 | 367.95 kg/m3
528.15 K, 7710 kPa, x1 = 0.8 | 312.86 kg/m3
528.15 K, 7870 kPa, x1 = 0.8 | 367.91 kg/m3
528.15 K, 8040 kPa, x1 = 0.8 | 383.24 kg/m3
528.15 K, 8410 kPa, x1 = 0.8 | 406.33 kg/m3
531.15 K, 8420 kPa, x1 = 0.8 | 367.86 kg/m3
533.15 K, 4750 kPa, x1 = 0.8 | 53.24 kg/m3
533.15 K, 7070 kPa, x1 = 0.5 | 84.52 kg/m3
533.15 K, 7100 kPa, x1 = 0.8 | 115.14 kg/m3
533.15 K, 8140 kPa, x1 = 0.8 | 188.77 kg/m3
533.15 K, 8270 kPa, x1 = 0.8 | 244.11 kg/m3 and 260.96 kg/m3
533.15 K, 8350 kPa, x1 = 0.8 | 284.34 kg/m3
533.15 K, 8420 kPa, x1 = 0.8 | 312.77 kg/m3
533.15 K, 8440 kPa, x1 = 0.8 | 307.44 kg/m3
533.15 K, 8750 kPa, x1 = 0.8 | 367.82 kg/m3
533.15 K, 8990 kPa, x1 = 0.8 | 383.14 kg/m3
533.15 K, 9460 kPa, x1 = 0.8 | 406.22 kg/m3
533.15 K, 10480 kPa, x1 = 0.8 | 440.21 kg/m3
533.15 K, 10860 kPa, x1 = 0.8 | 446.58 kg/m3
533.15 K, 17410 kPa, x1 = 0.8 | 516.16 kg/m3
538.15 K, 9170 kPa, x1 = 0.8 | 312.69 kg/m3
538.15 K, 27310 kPa, x1 = 0.8 | 553.51 kg/m3
543.15 K, 4920 kPa, x1 = 0.8 | 53.21 kg/m3
543.15 K, 7570 kPa, x1 = 0.5 | 84.48 kg/m3
543.15 K, 7610 kPa, x1 = 0.8 | 115.08 kg/m3
543.15 K, 9020 kPa, x1 = 0.8 | 188.68 kg/m3
543.15 K, 9530 kPa, x1 = 0.8 | 260.83 kg/m3
543.15 K, 9680 kPa, x1 = 0.8 | 284.19 kg/m3
543.15 K, 9920 kPa, x1 = 0.8 | 312.61 kg/m3
543.15 K, 10630 kPa, x1 = 0.8 | 367.62 kg/m3
543.15 K, 10940 kPa, x1 = 0.8 | 382.93 kg/m3
543.15 K, 11670 kPa, x1 = 0.8 | 406 kg/m3
548.15 K, 7850 kPa, x1 = 0.8 | 115.06 kg/m3
548.15 K, 9420 kPa, x1 = 0.8 | 188.63 kg/m3
548.15 K, 9680 kPa, x1 = 0.5 | 294.01 kg/m3
548.15 K, 9720 kPa, x1 = 0.5 | 327.56 kg/m3
548.15 K, 9980 kPa, x1 = 0.8 | 243.92 kg/m3
548.15 K, 10390 kPa, x1 = 0.5 | 421.66 kg/m3
548.15 K, 10630 kPa, x1 = 0.8 | 307.19 kg/m3
548.15 K, 10680 kPa, x1 = 0.8 | 312.53 kg/m3
548.15 K, 11790 kPa, x1 = 0.5 | 464.07 kg/m3
548.15 K, 11950 kPa, x1 = 0.8 | 382.83 kg/m3
548.15 K, 14420 kPa, x1 = 0.8 | 439.83 kg/m3
548.15 K, 14800 kPa, x1 = 0.8 | 446.2 kg/m3
548.15 K, 17240 kPa, x1 = 0.5 | 522.28 kg/m3
548.15 K, 26570 kPa, x1 = 0.5 | 568.89 kg/m3
548.15 K, 30490 kPa, x1 = 0.5 | 581.74 kg/m3
553.15 K, 5080 kPa, x1 = 0.8 | 53.19 kg/m3
553.15 K, 6130 kPa, x1 = 0.5 | 55.97 kg/m3
553.15 K, 7190 kPa, x1 = 0.5 | 69.28 kg/m3
553.15 K, 7970 kPa, x1 = 0.5 | 84.44 kg/m3
553.15 K, 9210 kPa, x1 = 0.5 | 117.47 kg/m3
553.15 K, 10090 kPa, x1 = 0.5 | 171.33 kg/m3
553.15 K, 10330 kPa, x1 = 0.5 | 234.67 kg/m3
553.15 K, 10520 kPa, x1 = 0.5 | 327.48 kg/m3
553.15 K, 10600 kPa, x1 = 0.5 | 293.93 kg/m3
553.15 K, 10890 kPa, x1 = 0.5 | 385.77 kg/m3
553.15 K, 11430 kPa, x1 = 0.8 | 312.45 kg/m3
553.15 K, 11790 kPa, x1 = 0.5 | 424.77 kg/m3
553.15 K, 11850 kPa, x1 = 0.5 | 419.86 kg/m3
553.15 K, 12540 kPa, x1 = 0.8 | 367.42 kg/m3
553.15 K, 13460 kPa, x1 = 0.5 | 463.93 kg/m3
553.15 K, 19450 kPa, x1 = 0.5 | 522.11 kg/m3
553.15 K, 25160 kPa, x1 = 0.8 | 515.53 kg/m3
553.15 K, 25720 kPa, x1 = 0.5 | 555.9 kg/m3
553.15 K, 47100 kPa, x1 = 0.5 | 614.98 kg/m3
558.15 K, 8310 kPa, x1 = 0.8 | 115 kg/m3
558.15 K, 10340 kPa, x1 = 0.8 | 188.54 kg/m3
558.15 K, 11380 kPa, x1 = 0.8 | 260.63 kg/m3
558.15 K, 11700 kPa, x1 = 0.8 | 283.97 kg/m3
558.15 K, 13990 kPa, x1 = 0.8 | 382.62 kg/m3
558.15 K, 15170 kPa, x1 = 0.8 | 405.66 kg/m3
563.15 K, 6360 kPa, x1 = 0.5 | 55.95 kg/m3
563.15 K, 7510 kPa, x1 = 0.5 | 69.25 kg/m3
563.15 K, 8400 kPa, x1 = 0.5 | 84.4 kg/m3
563.15 K, 8830 kPa, x1 = 0.2 | 67.68 kg/m3
563.15 K, 9900 kPa, x1 = 0.5 | 117.41 kg/m3
563.15 K, 11080 kPa, x1 = 0.5 | 171.24 kg/m3
563.15 K, 12360 kPa, x1 = 0.5 | 327.3 kg/m3
563.15 K, 12940 kPa, x1 = 0.8 | 312.28 kg/m3
563.15 K, 12970 kPa, x1 = 0.8 | 312.28 kg/m3
563.15 K, 13290 kPa, x1 = 0.5 | 385.56 kg/m3
563.15 K, 14460 kPa, x1 = 0.8 | 367.22 kg/m3
563.15 K, 16510 kPa, x1 = 0.5 | 463.66 kg/m3
563.15 K, 23620 kPa, x1 = 0.5 | 521.79 kg/m3
568.15 K, 9040 kPa, x1 = 0.2 | 67.66 kg/m3
573.15 K, 5420 kPa, x1 = 0.8 | 53.14 kg/m3
573.15 K, 6590 kPa, x1 = 0.5 | 55.92 kg/m3
573.15 K, 7820 kPa, x1 = 0.5 | 69.21 kg/m3
573.15 K, 8780 kPa, x1 = 0.5 | 84.36 kg/m3
573.15 K, 8990 kPa, x1 = 0.8 | 114.92 kg/m3
573.15 K, 10460 kPa, x1 = 0.5 | 117.35 kg/m3
573.15 K, 11580 kPa, x1 = 0.8 | 188.4 kg/m3
573.15 K, 12050 kPa, x1 = 0.5 | 171.15 kg/m3
573.15 K, 12840 kPa, x1 = 0.8 | 243.61 kg/m3
573.15 K, 13010 kPa, x1 = 0.5 | 234.43 kg/m3
573.15 K, 13190 kPa, x1 = 0.8 | 260.43 kg/m3
573.15 K, 13610 kPa, x1 = 0.5 | 293.62 kg/m3
573.15 K, 13720 kPa, x1 = 0.8 | 283.75 kg/m3
573.15 K, 14410 kPa, x1 = 0.8 | 306.79 kg/m3
573.15 K, 14490 kPa, x1 = 0.8 | 312.12 kg/m3
573.15 K, 15660 kPa, x1 = 0.5 | 385.34 kg/m3
573.15 K, 16440 kPa, x1 = 0.8 | 367.02 kg/m3
573.15 K, 16820 kPa, x1 = 0.5 | 419.39 kg/m3
573.15 K, 17060 kPa, x1 = 0.5 | 421.07 kg/m3
573.15 K, 17150 kPa, x1 = 0.8 | 382.31 kg/m3
573.15 K, 17210 kPa, x1 = 0.5 | 424.29 kg/m3
573.15 K, 18650 kPa, x1 = 0.8 | 405.32 kg/m3
573.15 K, 20120 kPa, x1 = 0.5 | 463.38 kg/m3
573.15 K, 21340 kPa, x1 = 0.8 | 439.21 kg/m3
573.15 K, 22500 kPa, x1 = 0.8 | 451.39 kg/m3
573.15 K, 28040 kPa, x1 = 0.5 | 521.47 kg/m3
573.15 K, 39960 kPa, x1 = 0.5 | 567.95 kg/m3
573.15 K, 44900 kPa, x1 = 0.5 | 580.76 kg/m3
577.15 K, 45760 kPa, x1 = 0.8 | 552.13 kg/m3
578.15 K, 23390 kPa, x1 = 0.8 | 445.43 kg/m3
578.15 K, 35170 kPa, x1 = 0.8 | 514.74 kg/m3
578.15 K, 38000 kPa, x1 = 0.5 | 555.01 kg/m3
593.15 K, 50760 kPa, x1 = 0.5 | 567.2 kg/m3
598.15 K, 5820 kPa, x1 = 0.8 | 53.08 kg/m3
598.15 K, 7080 kPa, x1 = 0.5 | 55.85 kg/m3
598.15 K, 8560 kPa, x1 = 0.5 | 69.13 kg/m3
598.15 K, 9720 kPa, x1 = 0.5 | 84.26 kg/m3
598.15 K, 10060 kPa, x1 = 0.8 | 114.78 kg/m3
598.15 K, 11840 kPa, x1 = 0.5 | 117.21 kg/m3
598.15 K, 12030 kPa, x1 = 0.2 | 90.05 kg/m3
598.15 K, 13600 kPa, x1 = 0.8 | 188.16 kg/m3
598.15 K, 14290 kPa, x1 = 0.2 | 138.08 kg/m3
598.15 K, 15290 kPa, x1 = 0.2 | 221.72 kg/m3
598.15 K, 15460 kPa, x1 = 0.2 | 286.74 kg/m3
